Laboratory results from patent US5631222A, “Endothelin-antagonizing peptide” (Kyowa Hakko Kogyo Co., Ltd., priority 1993, dated 1997).
Positions of bridges follow the written chain, without caps; N, C: chain ends. Non-standard residues stand in square brackets, D forms with d. Residues, ends and D or L forms follow the SMILES beside them. 2Thi = N[C@@H](Cc1cccs1)C(=O)O; Cha = N[C@@H](CC1CCCCC1)C(=O)O

Experiments:
endothelin receptor = molecular target: T1, endothelin receptor (Bos taurus, UniProt P28088); experiment: Endothelin receptor-antagonizing activity: inhibition of 125I-endothelin-1 binding to bovine cerebellum membrane fraction; settings: 125I-Endothelin-1, bovine cerebellum membrane fraction, 25° C. for 2 hours; read-out: IC50: Concentration causing 50% inhibition of endothelin1 binding
T1 construct: the suspension was used as a membrane fraction liquid; from tissue; host or cells: bovine cerebellum membrane fraction
T1 sequence (P28088 27-441): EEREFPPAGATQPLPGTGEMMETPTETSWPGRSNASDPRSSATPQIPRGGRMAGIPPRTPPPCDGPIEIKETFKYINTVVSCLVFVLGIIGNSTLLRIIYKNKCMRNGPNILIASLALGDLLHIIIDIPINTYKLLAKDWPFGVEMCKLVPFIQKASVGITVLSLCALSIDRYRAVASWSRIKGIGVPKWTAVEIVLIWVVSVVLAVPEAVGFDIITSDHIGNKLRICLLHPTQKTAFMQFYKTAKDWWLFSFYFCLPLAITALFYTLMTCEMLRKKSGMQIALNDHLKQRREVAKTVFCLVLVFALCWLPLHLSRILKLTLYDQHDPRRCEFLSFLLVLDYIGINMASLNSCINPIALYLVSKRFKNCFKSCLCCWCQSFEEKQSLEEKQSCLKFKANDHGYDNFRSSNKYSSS
Experimental: Bovine cerebellum tissue was homogenized at 4° C. by using POLYTRON (type PT10/35, manufactured by Kinematic Gmbh Co.) in a buffer solution A (1 mM NaHCO3, 5 mM ethylenediaminetetraacetic acid, 5 μg/ml leupeptin, 5 μg/ml pepstatin A, 40 μM phenylmethylsulfonyl fluoride, pH 8.3).
The obtained suspension was centrifuged for 10 minutes at 8,000 G and 4° C., and the resulting supernatant was centrifuged for 60 minutes at 40,000 G and 4° C. to obtain pellets. The obtained pellets were suspended in a buffer solution A and again centrifuged for 60 minutes at 40,000 G and 4° C. The resulting solid substance was prepared as a suspension containing 2 mg/ml of protein, and the suspension was used as a membrane fraction liquid. […] These mixtures were incubated at 25° C. for 2 hours, and then filtered with a GF/B glass filter (produced by Whatman Co.). […] The inhibition ratio against endothelin receptor binding activity was calculated according to the following equation:
Inhibition ratio (%)=(C-A/C-B)×100
B: Radioactivity in the presence of unlabelled endothelin-1
C: Radioactivity in the absence of both of the compound shown in Table 2 and unlabelled endothelin-1

[1] = system: ET-1 contraction of rat thoracic aorta ring; experiment: Inhibitory effect on ET-1 contraction (ring specimen of extracted rat thoracic aorta); settings: compound 10^-7 M, ET-1 3×10^-9 M, Sprague-Dawley rat thoracic aorta ring, tension relative to norepinephrine maximum
Experimental: Test Example 2: Inhibitory Effect On ET-1 Contraction (ring specimen of extracted rat thoracic aorta)
Male Sprague-Dawley rats (Slc. 450-550 g) were anesthetized by intravenous injection of 50 mg/kg of sodium pentobarbital (Nembutal™, Dynabot), and the heads thereof were then incised to die by bleeding. The breasts of the rats were then incised to extract the thoracic aortas therefrom. After the connective tissue which adhered to the blood vessels were removed in a nutrient solution, the blood vessels were cut into rings (3-4 mm), and two metallic holders (one of which was fixed to a support rod) were passed through the blood vessel to prepare a specimen. One end of the holder was mounted on a tension transducer (TB-611T, produced by Nihon Koden) through silk yarn, and the specimen was suspended in a Magnus' tube containing a nutrient solution. Resting tension (1.5 g) was applied to the specimen, and the nutrient solution was replaced several times until the tension was stabilized. Norepinephrine [(±) hydrochloride, Sigma] (10-20 μM) was then added, and the tension generated by contraction of the specimen was measured to determine the maximum value of the tension. The tension generated was detected by the tension transducer, amplified by a pressure strain amplifier (AP-621G, produced by Nihon Koden) and then recorded by a pen recorder (TYPE3066, YOKOGAWA). After the specimen was washed several times to remove Norepinephrine, each of the compounds shown in Table 3 which was dissolved in distilled water was added to the nutrient solution so that the concentration thereof was 10^-7 M, or only distilled water was added thereto in the same volume. […] After the specimens were allowed to stand for 10 minutes, ET-1 was successively added to the nutrient solutions so that the concentration thereof was 3×10^-9 M, and the tension of each of the specimens was measured. The relative value to the maximum tension previously determined was calculated, and the inhibitory effect (% inhibition) on contraction due to ET-1 was determined according to the following equation. […]

Molecule | IC50 (endothelin receptor) | % inhibition of contraction due to ET-1 [1]
CC[C@H](C)[C@H](NC(=O)[C@H](CC1CCCCC1)NC(=O)[C@@H](NC(=O)[C@H](CC(C)C)NC(=O)[C@H](Cc1c[nH]cn1)NC(=O)[C@H](C)NC(=O)[C@H](Cc1ccccc1)NC(=O)[C@H](Cc1ccc(O)cc1)NC(=O)[C@@H](NC(=O)[C@H](Cc1c[nH]c2ccccc12)NC(=O)[C@H](CC(=O)O)NC(=O)[C@@H]1CCCN1C(=O)[C@H](C)NC(=O)[C@@H](NC(=O)CNC(=O)[C@H](Cc1c[nH]cn1)NC(=O)[C@H](Cc1c[nH]c2ccccc12)NC(=O)[C@H](CC(N)=O)NC(=O)CN)[C@@H](C)O)C(C)C)[C@@H](C)O)C(=O)N[C@@H](Cc1c[nH]c2ccccc12)C(=O)O [Compound 14, HGlyAsnTrpHisGlyThrAlaProAspTrpValTyrPheAlaHisLeuThrChaIleTrpOH] (H-GNWHGTAPDWVYFAHLT[Cha]IW-OH) | 12 nM | 47.0%
CC[C@H](C)[C@H](NC(=O)[C@H](Cc1cccs1)NC(=O)[C@@H](NC(=O)[C@H](CC(C)C)NC(=O)[C@H](Cc1c[nH]cn1)NC(=O)[C@H](C)NC(=O)[C@H](Cc1ccccc1)NC(=O)[C@H](Cc1ccc(O)cc1)NC(=O)[C@@H](NC(=O)[C@H](Cc1c[nH]c2ccccc12)NC(=O)[C@H](CC(=O)O)NC(=O)[C@@H]1CCCN1C(=O)[C@H](C)NC(=O)[C@@H](NC(=O)CNC(=O)[C@H](Cc1c[nH]cn1)NC(=O)[C@H](Cc1c[nH]c2ccccc12)NC(=O)[C@H](CC(N)=O)NC(=O)CN)[C@@H](C)O)C(C)C)[C@@H](C)O)C(=O)N[C@@H](Cc1c[nH]c2ccccc12)C(=O)O [Compound 17, HGlyAsnTrpHisGlyThrAlaProAspTrpValTyrPheAlaHisLeuThrThiIleTrpOH] (H-GNWHGTAPDWVYFAHLT[2Thi]IW-OH) | 0.12 nM | 61.3%
CC[C@H](C)[C@H](NC(=O)[C@H](CC(=O)O)NC(=O)[C@H](CC(C)C)NC(=O)[C@H](Cc1c[nH]cn1)NC(=O)[C@H](C)NC(=O)[C@H](Cc1ccccc1)NC(=O)[C@H](Cc1ccc(O)cc1)NC(=O)[C@@H](NC(=O)[C@H](Cc1c[nH]c2ccccc12)NC(=O)[C@@H]1CC(=O)NCC(=O)N[C@@H](Cc2ccc(O)cc2)C(=O)N2CCC[C@H]2C(=O)N[C@@H](Cc2c[nH]c3ccccc23)C(=O)N[C@@H](Cc2c[nH]c3ccccc23)C(=O)N[C@@H](CC(N)=O)C(=O)N[C@@H](Cc2ccc(O)cc2)C(=O)N[C@@H](CCCNC(=N)N)C(=O)N1)C(C)C)C(=O)N[C@H](C(=O)N[C@@H](Cc1c[nH]c2ccccc12)C(=O)O)[C@@H](C)CC [Compound 52] (GYPWWNYRDWVYFAHLDIIW-OH; lactam N-9) | 19 nM | 
CC[C@H](C)[C@H](NC(=O)[C@H](CC(=O)O)NC(=O)[C@H](CC(C)C)NC(=O)[C@H](Cc1c[nH]cn1)NC(=O)[C@H](C)NC(=O)[C@H](Cc1ccccc1)NC(=O)[C@H](Cc1ccc(O)cc1)NC(=O)[C@@H](NC(=O)[C@H](Cc1c[nH]c2ccccc12)NC(=O)[C@@H]1CC(=O)NCC(=O)N[C@@H](CO)C(=O)N[C@@H](C)C(=O)N[C@@H](C)C(=O)N[C@@H](C(C)C)C(=O)N[C@@H](Cc2ccc(O)cc2)C(=O)N[C@@H](Cc2ccccc2)C(=O)N1)C(C)C)C(=O)N[C@H](C(=O)N[C@@H](Cc1c[nH]c2ccccc12)C(=O)O)[C@@H](C)CC [Compound 53] (GSAAVYFDWVYFAHLDIIW-OH; lactam N-8) | 2.4 nM | 
H-GDWKGTSPDWVYFAHLDIIW-OH [Compound 6, HGlyAspTrpLysGlyThrSerProAspTrpValTyrPheAlaHisLeuAsplleIleTrpOH] | 0.11 nM | 
H-GNWHGGAPDWVYFAHLDIIW-OH [Compound 3] | 0.064 nM | 
H-GNWHGTAADWVYFAHLSMIW-OH [Compound 46] | 0.8 nM | 
H-GNWHGTAPDAVYFAHLDIIW-OH [Compound 4, HGlyAsnTrPHisGlyThrAlaProAspAlaValTyrPheAlaHisLeuAspIleIleTrpOH] | 0.22 nM | 
H-GNWHGTAPDWFAHLDIIW-OH [Compound 11, HGlyAsnTrpHisGlyThrAlaProAspTrpPheAlaHisLeuAspIleIleTrpOH] | 6.1 nM | 
H-GNWHGTAPDWPYFAHLDIIW-OH [Compound 47] | 4.2 nM | 
H-GNWHGTAPDWVYFAHLDIIF-OH [Compound 5] | 11 nM | 
H-GNWHGTAPDWVYFAHLDLIW-OH [Compound 16] | 5.4 nM | 
H-GNWHGTAPDWVYFAHLEIIW-OH [Compound 43] | 17 nM | 
H-GNWHGTAPDWVYFAHLNYIW-OH [Compound 20] | 12 nM | 
H-GNWHGTAPDWVYFAHLSMIW-OH [Compound 21] | 0.96 nM | 40.4%
H-GNWHGTAPDWVYFAHLTLIW-OH [Compound 13] | 2.9 nM | 
H-GNWHGTAPDWVYFAHLTMIW-OH [Compound 18] | 1.7 nM | 
H-GNWHGTAPDWVYFAHLTYIW-OH [Compound 19] | 1.2 nM | 
H-GNWHGTAPDWYFAHLDIIW-OH [Compound 10, HGlyAsnTrpHisGlyThrAlaProAspTrpTyrPheAlaHisLeuAspIleIleTrpOH] | 0.57 nM | 
H-GNWHTTAPDWVYFAHLDIIW-OH [Compound 2, HGlyAsnTrpHisThrThrAlaProAspTrpValTyrPheAlaHisLeuAspIleleTrpOH] | 0.061 nM | 
H-HGTAPDWVYFAHLDIIW-OH [Compound 9, HHisGlyThrAlaProAspTrpValTyrPheAlaHisLeuAspIleIleTrpOH] | 0.088 nM | 
H-NWHGTAPDWVYFAHLDIIW-OH [Compound 7, HAsnTrpHisGlyThrAlaProAspTrpValTyrPheAlaHisLeuAspIleIleTrpOH] | 0.1 nM | 
H-VYFSHLDIIW-OH [Compound w, H-Val-Tyr-Phe-Ser-His-Leu-Asp-Ile-Ile-Trp-OH, reference compound] | > 1000 nM | 
H-WHGTAPDWVYFAHLDIIW-OH [Compound 8, HTrpHisGlyThrAlaProAspTrpValTyrPheAlaHisLeuAspIleIleTrpOH] | 0.076 nM | 
